Measurements: patent publication EP4759807A1, “PROTEOLYSIS TARGETING CHIMERA COMPOUND FOR DEGRADING IRAK4 AND USE THEREOF” (Shenzhen Zhongge Biological Technology Co., Ltd., priority 2023, dated 2025)
Read-outs that look alike come from different tables or passages of the source.

Columns and labels:
[1] = molecular target: T1, IRAK4 (Mus musculus, UniProt Q8R4K2); details: Balb/c mice, 24 h
T1 sequence (Q8R4K2 1-459): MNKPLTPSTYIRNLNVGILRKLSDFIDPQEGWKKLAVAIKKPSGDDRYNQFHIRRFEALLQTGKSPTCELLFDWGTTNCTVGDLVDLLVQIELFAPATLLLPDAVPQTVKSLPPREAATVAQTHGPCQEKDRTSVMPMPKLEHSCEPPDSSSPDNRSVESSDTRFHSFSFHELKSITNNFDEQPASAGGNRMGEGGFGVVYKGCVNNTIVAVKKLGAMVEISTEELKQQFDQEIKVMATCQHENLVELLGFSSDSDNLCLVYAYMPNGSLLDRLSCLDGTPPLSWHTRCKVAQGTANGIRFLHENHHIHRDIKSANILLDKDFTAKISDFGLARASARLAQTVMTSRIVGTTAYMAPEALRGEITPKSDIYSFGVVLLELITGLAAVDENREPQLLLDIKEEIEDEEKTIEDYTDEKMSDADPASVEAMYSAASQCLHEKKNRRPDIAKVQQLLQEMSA
Procedure: Experiment materials: Female Balb/c mice, 6-8 weeks old, 18-20 grams were used in the experiment and were provided by Vital River Laboratory Animal Technology Co., Ltd.
Experimental method: The experiment started after the experimental animals were acclimated to the animal facility environment for 3 days. […] After 24 h, the animals were euthanized, and whole blood and spleen tissue were collected. The whole blood was temporarily placed on wet ice for subsequent PBMC extraction, and the spleen tissue was quickly placed in dry ice. PBMC extraction: 1.5 ml of red blood cell lysis buffer was added to the whole blood, and the obtained mixture was tapped with fingers for mixing, placed at room temperature in the dark for 5 min, and centrifuged at 400 g for 5 min, and the supernatant was discarded. The above steps were repeated twice. Then, 1.5 ml of DPBS was added and mixed uniformly. The mixture was centrifuged at 400 g for 5 min, and the obtained precipitate was PBMC. The PBMC was stored in a -80°C refrigerator for subsequent Western blot analysis. PBMC sample processing: The PBMC samples were placed on wet ice. 50 µL of lysis buffer was separately added to lyse the samples for 30 min, and the mixture was centrifuged at 12500 rpm for 15 min. The protein was quantified by the BCA method. […] The protein was quantified by BCA method. […]

[2] = molecular target: T2, CYP2C9 (Homo sapiens, UniProt P11712); assay: Inhibitory effect on human liver microsome CYP450 enzyme; assay type: in vitro ADME; details: human liver microsomes, substrate Diclofenac Sodium
T2 construct: 0.05 mg/mL liver microsomes (BioIVT, IHG) phosphate buffer solution; tissue BioIVT IHG; host or cells: human liver microsomes
T2 sequence (P11712 whole entry): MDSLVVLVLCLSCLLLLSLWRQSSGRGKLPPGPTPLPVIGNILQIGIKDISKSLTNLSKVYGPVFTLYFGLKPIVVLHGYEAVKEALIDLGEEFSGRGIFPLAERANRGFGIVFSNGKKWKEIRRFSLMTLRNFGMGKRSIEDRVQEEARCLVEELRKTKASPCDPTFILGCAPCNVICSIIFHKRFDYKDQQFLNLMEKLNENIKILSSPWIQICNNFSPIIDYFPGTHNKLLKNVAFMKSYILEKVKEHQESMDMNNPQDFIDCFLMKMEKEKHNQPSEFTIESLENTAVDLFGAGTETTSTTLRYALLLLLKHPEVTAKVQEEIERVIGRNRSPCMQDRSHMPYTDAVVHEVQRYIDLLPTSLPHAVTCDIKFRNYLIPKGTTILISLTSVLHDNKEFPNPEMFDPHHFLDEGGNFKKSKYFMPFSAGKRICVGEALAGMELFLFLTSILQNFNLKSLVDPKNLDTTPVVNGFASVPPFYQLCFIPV
Procedure: (§1) In this experiment, the compound, liver microsomes and different CYP isoform enzyme substrates were incubated in a 37°C water bath, the amount of substrate metabolites generated was measured, and the inhibitory effect of the compound of the present disclosure on CYP enzyme was evaluated based on the IC50 value.
(§2) i. The compound was diluted with DMSO (Aladdin, catalog number: D103273-500ml) to concentrations of 0, 0.02, 0.06, 0.2, 0.6, 2 and 6 mM. The positive reference inhibitors for each CYP isoform and their concentrations are shown in Table 4 Table 4 Positive reference inhibitors for CYP isoform enzymes and their concentrations
(§3) ii. Phosphate buffer (sigma: V900050-500G) was used to formulate the substrate solution for each CYP isoform enzyme. Table 5 The substrate and the concentration thereof for CYP isoform enzyme
(§4) iii. Sample incubation. 1 µL of each concentration of the compound and positive reference inhibitor for CYP isoform enzyme were taken and placed into a 96-deep well plate (A-gen: P-1.0-RD-96-S), and 169 µL of 0.05 mg/mL liver microsomes (BioIVT, IHG) phosphate buffer solution (using 0.2 mg/mL liver microsomes for CYP2C19) was added. After uniform mixing, the plate was placed in a 37°C water bath (Shanghai Jinghong Experimental Equipment Co., Ltd., DK-500) with shaking for pre-incubation for 15 min. 10 µL of substrate (adding 1 µL of substrate for CYP3A4-Testosterone) and 20 µL of 10 mM NADPH phosphate buffer solution (MCE, HYF003/CS-4998) were added. After uniform mixing, the plate was incubated in a water bath with shaking for the following time: CYP1A2: 20 min, CYP2C9: 10 min, CYP2C19: 10 min, CYP2D6: 10 min, CYP3A4-Testosterone: 10 min, CYP3A4-Midazolam: 5 min. 400 µL of glacial acetonitrile/methanol (v/v, 1:1) containing an internal standard (500 nM tolbutamide, 5 nM terfenadine) was added to terminate the reaction. After centrifugation at 4000 rpm at 4°C for 40 min, the supernatant was taken and diluted with pure water according to the response of the metabolite of the substrate, and then UPLC-MS/MS (Sciex, Q-Trap 4500) was used for detection to obtain the peak area. The C18 chromatographic column was Kinetex 2.6u C18 100A (50 mm*3 mm).
(§5) The inhibitory effect of the compound on each P450 enzyme in human liver microsomes was calculated as the percentage of reduced metabolite formation compared with the non-inhibitory control (i.e. blank DMSO). The IC50 value of the compound for each P450 enzyme in human liver microsomes was calculated with the logarithm of the remaining activity and the inhibitor concentration using Graphpad Prism software. The calculation equation was as follows: Peak area ratio = compound peak area / internal standard peak area [formula] [formula]
(§6) In Graphpad Prism software, the IC50 value was calculated using the standard four-parameter curve fitting algorithm.

[3] = molecular target: T3, CYP3A4 (Homo sapiens, UniProt P08684); assay: as above; assay type: in vitro ADME; details: liver microsomes
T3 construct: 0.05 mg/mL liver microsomes (BioIVT, IHG) phosphate buffer solution; tissue BioIVT IHG; host or cells: human liver microsomes
T3 sequence (P08684 whole entry): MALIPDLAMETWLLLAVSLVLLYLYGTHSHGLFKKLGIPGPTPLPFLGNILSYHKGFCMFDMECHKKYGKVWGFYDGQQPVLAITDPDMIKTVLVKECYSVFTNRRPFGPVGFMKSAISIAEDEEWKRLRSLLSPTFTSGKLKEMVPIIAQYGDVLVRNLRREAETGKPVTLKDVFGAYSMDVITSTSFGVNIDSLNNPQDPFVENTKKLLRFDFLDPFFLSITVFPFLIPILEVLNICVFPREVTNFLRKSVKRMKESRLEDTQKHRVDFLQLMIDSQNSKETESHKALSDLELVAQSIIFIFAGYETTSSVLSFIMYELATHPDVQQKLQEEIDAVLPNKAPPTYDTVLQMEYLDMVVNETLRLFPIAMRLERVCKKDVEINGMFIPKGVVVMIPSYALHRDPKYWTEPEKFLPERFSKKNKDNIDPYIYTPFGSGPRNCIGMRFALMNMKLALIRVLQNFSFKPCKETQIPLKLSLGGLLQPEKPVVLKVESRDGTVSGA
Procedure: as §1, §2, §3, §4, §5, §6

[4] = molecular target: T4, IRAK4 (Homo sapiens, UniProt Q9NWZ3); assay: Hibit fluorescence detection of proteolysis (IRAK4-HiBiT in HEK293T cells); assay type: cell-based; design: host or cells: HEK293T (ATCC)
T4 sequence (Q9NWZ3 1-460): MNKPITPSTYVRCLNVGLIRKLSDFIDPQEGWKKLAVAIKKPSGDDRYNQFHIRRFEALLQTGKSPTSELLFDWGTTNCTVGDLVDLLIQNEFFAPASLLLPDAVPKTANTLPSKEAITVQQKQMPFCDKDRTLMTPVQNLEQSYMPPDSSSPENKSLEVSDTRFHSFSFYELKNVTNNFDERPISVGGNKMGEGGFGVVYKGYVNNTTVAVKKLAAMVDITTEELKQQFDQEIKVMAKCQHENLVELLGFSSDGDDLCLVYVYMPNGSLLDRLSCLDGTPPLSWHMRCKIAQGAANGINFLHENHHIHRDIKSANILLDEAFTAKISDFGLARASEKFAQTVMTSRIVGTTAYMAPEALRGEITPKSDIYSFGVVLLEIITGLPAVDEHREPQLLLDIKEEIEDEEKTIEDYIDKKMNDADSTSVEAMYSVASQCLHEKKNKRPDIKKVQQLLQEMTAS
How it was run: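 Degradation read-out: luminescence from lytic HiBiT detection (15 min, room temperature) after 24 h compound exposure (37 °C, 5% CO2) of HEK293T cells transiently expressing IRAK4 fused to a HiBiT tag. Data fitted to a bell-shaped four-parameter model giving two EC50 values.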

With `Cn1c(=O)n(C2CCC(=O)NC2=O)c2cccc(N3CCC(N4CCN(C[C@H]5CC[C@H](n6cc(-n7cc(-c8cnn9ccc(N%10CCC[C@H](O)C%10)nc89)nn7)c(C(F)F)n6)CC5)CC4)CC3)c21` (stereo partly shown) [Example 146] the “expression level of IRAK4 protein in the spleen and PBMC” value ([1]; single oral dose 10, 30, 100 mg/kg, compared with the blank control group) was “significantly inhibit”, the “proteolysis ability for spleen IRAK4” value ([1]; single oral dose, three doses of 10, 30, and 100 mpk, compared with KT474) was “significantly superior to KT474” and the IC50 [2] was over 30 µM. It also gave an IC50 ([3]; substrate Midazolam, read-out: IC50 (µM) CYP3A4-M) of over 30 µM, an IC50 ([3]; substrate Testosterone, read-out: IC50 (µM) CYP3A4-T) of over 30 µM and a Dmax ([4]; HEK-293T) of over 80%. The DC50 ([4]; IRAK4-HiBiT, HEK293T cells, 24 h) was under 0.0005 µM.
